Assay results reported in the supplement of paper PMC10307832.

Experiments:
Assay in all cases: relative viability (nuclei count vs DMSO), 5 days (fraction); higher = more cells survive
Pazopanib + Phenformin = compound: Cc1ccc(Nc2nccc(N(C)c3ccc4c(C)n(C)nc4c3)n2)cc1S(N)(=O)=O [Pazopanib] + N=C(N)NC(=N)NCCc1ccccc1 [Phenformin] (partner 250 µM)
Procedure, shortened: (§1)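 Each reported value is a median over duplicate plates. It expresses relative viability: treated-well nuclei count divided by vehicle-well nuclei count. Lung cancer cell lines in 1536-well plates were dosed by pin tool a day after seeding, alone with one drug or with a fixed anchor-drug dose plus five library-drug doses (not always all listed) in √10 steps, and nuclei were counted after 5 days.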

Ponatinib + Pictilisib = compound: Cc1ccc(C(=O)Nc2ccc(CN3CCN(C)CC3)c(C(F)(F)F)c2)cc1C#Cc1cnc2cccnn12 [Ponatinib] + CS(=O)(=O)N1CCN(Cc2cc3nc(-c4cccc5[nH]ncc45)nc(N4CCOCC4)c3s2)CC1 [Pictilisib] (partner 1 µM)
Procedure, shortened: as §1

Ponatinib + Trametinib = compound: Cc1ccc(C(=O)Nc2ccc(CN3CCN(C)CC3)c(C(F)(F)F)c2)cc1C#Cc1cnc2cccnn12 [Ponatinib] + CC(=O)Nc1cccc(-n2c(=O)n(C3CC3)c(=O)c3c(Nc4ccc(I)cc4F)n(C)c(=O)c(C)c32)c1 [Trametinib] (partner 0.02 µM)
Procedure, shortened: as §1

Ponatinib + AZD7762 = compound: Cc1ccc(C(=O)Nc2ccc(CN3CCN(C)CC3)c(C(F)(F)F)c2)cc1C#Cc1cnc2cccnn12 [Ponatinib] + NC(=O)Nc1cc(-c2cccc(F)c2)sc1C(=O)N[C@H]1CCCNC1 [AZD7762] (partner 0.2 µM)
Procedure, shortened: as §1

Cell Line	relative viability (Pazopanib + Phenformin; first compound 0.01 µM)	relative viability (Pazopanib + Phenformin; first compound 0.03162 µM)	relative viability (Pazopanib + Phenformin; first compound 0.1 µM)	relative viability (Pazopanib + Phenformin; first compound 0.3162 µM)	relative viability (Pazopanib + Phenformin; first compound 1 µM)	relative viability (Ponatinib + Pictilisib; first compound 0.002 µM)	relative viability (Ponatinib + Pictilisib; first compound 0.006325 µM)	relative viability (Ponatinib + Pictilisib; first compound 0.06325 µM)	relative viability (Ponatinib + Pictilisib; first compound 0.2 µM)	relative viability (Ponatinib + Trametinib; first compound 0.002 µM)	relative viability (Ponatinib + Trametinib; first compound 0.006325 µM)	relative viability (Ponatinib + Trametinib; first compound 0.06325 µM)	relative viability (Ponatinib + Trametinib; first compound 0.2 µM)	relative viability (Ponatinib + AZD7762; first compound 0.002 µM)	relative viability (Ponatinib + AZD7762; first compound 0.006325 µM)	relative viability (Ponatinib + AZD7762; first compound 0.06325 µM)	relative viability (Ponatinib + AZD7762; first compound 0.2 µM)
ChaGo-K-1	0.474	0.428	0.535	0.547	0.495	0.59	0.917	0.879	0.644	0.863	0.907	0.914	0.815	0.763	0.857	0.847	0.819
LOU-NH91	0.635	0.731	0.605	0.751	0.731	0.554	0.567	0.512	0.521	0.803	0.807	0.886	0.764	0.744	0.779	0.801	0.682
NCI-H3122	0.417	0.388	0.345	0.36	0.376	0.635	0.7	0.635	0.73	0.256	0.199	0.241	0.209	0.846	0.903	1.05	0.924
LCLC-97TM1	0.242	0.419	0.389	0.43	0.452		0.243		0.221	0.186	0.208	0.168	0.162	0.141	0.264	0.289	0.28
NCI-H647	0.483	0.643	0.541	0.663	0.615	0.381	0.449	0.434	0.376	0.399	0.5	0.458	0.296	0.294	0.381	0.482	0.335
NCI-H838	0.548	0.648	0.587	0.647	0.753	0.564	0.505	0.455	0.455	0.461	0.554	0.529	0.424	0.899	0.935	0.95	0.774
